From ChEMBL document CHEMBL1201862, “PubChem BioAssay data set” (2004)
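Compound exposure: 48 hours, 5 concentrations, 96-well plates. At the GI50, growth is halved.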 Calls of active or inactive are those of the source. Cut-off read from the data, not from the text of the source: active = GI50 up to about 1.1 µM and inactive = higher.

Columns and labels:
Assay in all cases: NCI anticancer screen, dose series, 48 h
786-0 = system: 786-0
A549 = system: A549
CCRF-CEM = system: CCRF-CEM
EKVX = system: EKVX
HT-29 = system: HT-29
LOX IMVI = system: LOX IMVI
MDA-MB-231 = system: MDA-MB-231
OVCAR-8 = system: OVCAR-8
RPMI-8226 = system: RPMI-8226
SF-295 = system: SF-295
SK-MEL-5 = system: SK-MEL-5
SR = system: SR
SW-620 = system: SW-620
T47D = system: T47D
TK-10 = system: TK-10
UACC-257 = system: UACC-257
A498 = system: A498
HCT-116 = system: HCT-116
NCI-H226 = system: NCI-H226
SK-MEL-2 = system: SK-MEL-2

Measured: GI50

O=C(Nc1ccccc1)C(=O)C(C(=O)c1ccccc1)C(c1ccccc1)c1ccccc1 (stereo unspecified)
inactive: 786-0 > 10 µM | A549 > 10 µM | CCRF-CEM > 10 µM | EKVX > 10 µM | HT-29 > 10 µM | LOX IMVI > 10 µM | MDA-MB-231 > 10 µM | OVCAR-8 > 10 µM | RPMI-8226 > 10 µM | SF-295 > 10 µM | SK-MEL-5 > 10 µM | SR > 10 µM | SW-620 > 10 µM | T47D > 10 µM | TK-10 > 10 µM | UACC-257 > 10 µM

Cc1sc(Nc2ccccc2[N+](=O)[O-])c(C#N)c1C
inactive: 786-0 22.6 µM | A498 29.4 µM | A549 > 100 µM | CCRF-CEM > 100 µM | EKVX 35.4 µM | HCT-116 17.5 µM | MDA-MB-231 19.6 µM | NCI-H226 39.7 µM | OVCAR-8 27.7 µM | RPMI-8226 > 100 µM | SF-295 26.2 µM | SR > 100 µM | T47D 28.4 µM | UACC-257 > 100 µM

COC1=C(OC)C(=O)C(Cc2c(C)nc3sc(C)cn23)=C(C)C1=O
inactive: 786-0 19.7 µM | A498 33 µM | A549 19.5 µM | CCRF-CEM 7.13 µM | EKVX 16.7 µM | HCT-116 19.8 µM | HT-29 20.2 µM | LOX IMVI 17.4 µM | MDA-MB-231 14.7 µM | OVCAR-8 17.1 µM | RPMI-8226 16.3 µM | SF-295 19.1 µM | SK-MEL-2 17.4 µM | SK-MEL-5 15.2 µM | SR 17.9 µM | SW-620 25.5 µM | T47D 34.1 µM | TK-10 18.5 µM | UACC-257 12.8 µM

NS(=O)(=O)c1cc(Cl)c(NC(=S)NC(=O)Nc2ccc(Cl)c(Cl)c2)c(Cl)c1
inactive: 786-0 39 µM | A498 26.7 µM | A549 30.5 µM | CCRF-CEM 6.97 µM | EKVX 28.4 µM | HCT-116 35.7 µM | HT-29 46.8 µM | LOX IMVI 40.3 µM | MDA-MB-231 50.1 µM | NCI-H226 30.8 µM | OVCAR-8 47.6 µM | SF-295 37.8 µM | SK-MEL-2 25.5 µM | SK-MEL-5 18.3 µM | SR 36.2 µM | SW-620 58.1 µM | T47D 23.8 µM | TK-10 47.4 µM | UACC-257 29.9 µM

Cc1c(CN2CCN(C)CC2)c(CN2CCN(C)CC2)c(C)n1-c1ccc(Cl)cc1
inactive: 786-0 16.9 µM | A498 13.6 µM | A549 30.4 µM | CCRF-CEM 19.3 µM | EKVX 72.4 µM | HCT-116 27.7 µM | HT-29 18.2 µM | MDA-MB-231 68.5 µM | NCI-H226 33.6 µM | OVCAR-8 19.9 µM | RPMI-8226 47.2 µM | SF-295 21.2 µM | SK-MEL-2 21.3 µM | SK-MEL-5 16.8 µM | SR 17.4 µM | SW-620 54.2 µM | T47D 19.2 µM | TK-10 17.5 µM | UACC-257 14.2 µM

O=C(/C=C/c1ccc(Cl)cc1)Oc1ccc(/C=C2\CCCCC2=O)cc1
inactive: 786-0 > 100 µM | A498 > 100 µM | A549 > 100 µM | CCRF-CEM 55.5 µM | EKVX > 100 µM | HCT-116 > 100 µM | HT-29 23 µM | LOX IMVI > 100 µM | MDA-MB-231 > 100 µM | OVCAR-8 > 100 µM | RPMI-8226 > 100 µM | SF-295 > 100 µM | SK-MEL-2 > 100 µM | SK-MEL-5 > 100 µM | SR > 100 µM | SW-620 > 100 µM | T47D > 100 µM | TK-10 > 100 µM | UACC-257 > 100 µM

COC(=O)c1cc(C(=CCC[C@H]2CC[C@@]3(C)C(CCC4C3CC[C@@]3(C)C4CC[C@@H]3C(C)CCCC(C)C)C2)c2cc(Cl)c(OC(=O)c3ccccc3)c(C(=O)OC)c2)cc(Cl)c1OC(=O)c1ccccc1 (stereo partly specified)
inactive: 786-0 > 10 µM | A549 > 10 µM | CCRF-CEM > 10 µM | EKVX > 10 µM | HCT-116 > 10 µM | HT-29 > 10 µM | LOX IMVI > 10 µM | MDA-MB-231 > 10 µM | NCI-H226 > 10 µM | OVCAR-8 > 10 µM | RPMI-8226 > 10 µM | SF-295 > 10 µM | SK-MEL-2 > 10 µM | SK-MEL-5 > 10 µM | SR > 10 µM | SW-620 > 10 µM | T47D > 10 µM | TK-10 > 10 µM | UACC-257 > 10 µM

O=C1OC(c2ccc(Cl)cc2)=N/C1=C\c1ccccc1
inactive: 786-0 > 100 µM | A549 > 100 µM | CCRF-CEM 39.5 µM | EKVX > 100 µM | HCT-116 > 100 µM | HT-29 > 100 µM | LOX IMVI > 100 µM | MDA-MB-231 > 100 µM | NCI-H226 > 100 µM | OVCAR-8 > 100 µM | RPMI-8226 46.6 µM | SF-295 > 100 µM | SK-MEL-2 > 100 µM | SK-MEL-5 > 100 µM | SR > 100 µM | SW-620 > 100 µM | T47D > 100 µM | TK-10 > 100 µM | UACC-257 > 100 µM

N#C[BH2-][n+]1cn(C2CC(O)C(COP(=O)(O)OC3CC(n4cnc5c(N)ncnc54)OC3CO)O2)c2nc(N)[nH]c(=O)c21 (stereo unspecified)
inactive: 786-0 > 100 µM | A498 > 100 µM | A549 > 100 µM | CCRF-CEM > 100 µM | EKVX > 100 µM | HCT-116 > 100 µM | HT-29 > 100 µM | MDA-MB-231 > 100 µM | NCI-H226 > 100 µM | OVCAR-8 > 100 µM | SF-295 > 100 µM | SK-MEL-2 > 100 µM | SK-MEL-5 > 100 µM | SR > 100 µM | SW-620 > 100 µM | T47D > 100 µM | UACC-257 > 100 µM

Cc1cc(N(CCC#N)CCC#N)ccc1C(/N=N/c1ccccc1)=N\NC(=O)c1cc(Cl)ccc1O
inactive: 786-0 23.9 µM | A498 59.2 µM | A549 29.4 µM | CCRF-CEM 16.6 µM | EKVX 30.5 µM | HCT-116 15.7 µM | HT-29 15.5 µM | MDA-MB-231 27.1 µM | NCI-H226 20.5 µM | OVCAR-8 21.5 µM | RPMI-8226 64.7 µM | SF-295 18.5 µM | SK-MEL-2 32.4 µM | SK-MEL-5 21.5 µM | SR 13.5 µM | T47D 11.4 µM | TK-10 14.9 µM | UACC-257 18.6 µM

N[C@@H](CCC(=O)NCP(=O)(O)O)C(=O)O
inactive: 786-0 > 100 µM | A498 > 100 µM | A549 > 100 µM | EKVX > 100 µM | HCT-116 > 100 µM | HT-29 > 100 µM | MDA-MB-231 > 100 µM | OVCAR-8 > 100 µM | RPMI-8226 > 100 µM | SF-295 > 100 µM | SK-MEL-2 > 100 µM | SK-MEL-5 > 100 µM | SR > 100 µM | SW-620 > 100 µM | T47D > 100 µM | TK-10 > 100 µM | UACC-257 > 100 µM
